Assay results from patent publication US20110183942A1, “Methods and Compositions for Treating Alzheimer's Disease” (UNIVERSITY OF MEDICINE AND DENTISTRY OF NEW JERSEY, priority 2008, published 2011).

Target: T1, eEF2 kinase (Homo sapiens, UniProt O00418)
T1 construct: made in house; host or cells: E. coli
Assay: HTS screen for eEF2 kinase inhibitors (ATP depletion coupled to luciferase luminescence, eEF2p substrate)
Assay type: biochemical

CCCCCCCCCCCCCCCCN1C=CN(c2ccccc2)C1 [L-207]
identified as inhibitor for eEF2 kinase: inhibitors for eEF2 kinase
